Experimental data reported in article doi:10.1101/2025.01.30.635686v1 (biorxiv, 2025).

Target: T1, YME1LAAA (monomeric AAA+ domain) (Homo sapiens, UniProt Q96TA2)
T1 sequence (Q96TA2 317-588): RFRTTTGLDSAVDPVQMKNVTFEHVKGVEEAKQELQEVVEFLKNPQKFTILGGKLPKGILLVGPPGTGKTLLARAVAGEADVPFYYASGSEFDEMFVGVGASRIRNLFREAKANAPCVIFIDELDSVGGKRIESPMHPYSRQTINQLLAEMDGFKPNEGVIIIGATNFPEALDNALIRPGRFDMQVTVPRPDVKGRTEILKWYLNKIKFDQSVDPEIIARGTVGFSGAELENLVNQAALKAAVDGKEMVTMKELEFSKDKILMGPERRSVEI
Assay: methyl-TROSY NMR titration
Assay type: binding

- Kd: 4.6 ± 2.3 µM
SMILES: Nc1ncnc2c1ncn2[C@@H]1O[C@H](COP(=O)(O)OP(=O)(O)O)[C@@H](O)[C@H]1O [ADP]
